Experimental data reported in patent publication US10053485B2, “Cytotoxic agents that preferentially target leukemia inhibitory factor (LIF) for the treatment of malignancies and as new contraceptive agents” (Evestra, Inc., priority 2015, dated 2018).
Read-outs that look alike come from different tables or passages of the source. Values belong to the compound of their own block, whether it stands above or below them.

Experiments:
MDA-MB-231 (TNBC cells) = assay: Short term (72 h) cytotoxicity assay; type: cell-based; conditions: Homo sapiens; MDA-MB-231, 72 h cytotoxicity
U87-MU (Glioma cells) = assay: Short term (72 h) cytotoxicity assay; type: cell-based
U251 (Glioma) = assay: Short term (72 h) cytotoxicity assay; type: cell-based, human; conditions: U251, 72 h cytotoxicity
A549 (Lung cancer) = assay: Short term (72 h) cytotoxicity assay; type: cell-based, human; conditions: A549, 72 h cytotoxicity
[1] = tested on: T47D (ER+ PR+ Breast Cancer); assay: Short term (72 h) cytotoxicity assay; type: cell-based; conditions: Homo sapiens
[2] = tested on: MCF-7 (ER+ Breast Cancer); assay: Short term (72 h) cytotoxicity assay; type: cell-based; conditions: Homo sapiens, MCF7; MCF-7, 72 h cytotoxicity
[3] = tested on: PC3 (AR− Prostate Cancer); assay: Short term (72 h) cytotoxicity assay; type: cell-based; conditions: Homo sapiens, PC3, 72 h cytotoxicity
LNCaP (AR+ Prostate) = assay: Short term (72 h) cytotoxicity assay; type: cell-based
[4] = tested on: Ishikawa (Endometrial Cancer); assay: Short term (72 h) cytotoxicity assay; type: cell-based; conditions: Homo sapiens
[5] = tested on: various cancer cells lines; assay: Cytotoxicity assays in various cancer cell lines; type: cell-based; conditions: in words
Description: Briefly, 5×10^3 cells were seeded in 96-well plates and incubated with compounds (0.0001-10 μmol/L) or dimethyl sulfoxide (DMSO; 0.02% v/v) for 24, 48, and 72 hours at 37° C. and cell viability was measured using a Fluoroscan plate reader.

T47D breast cancer cells = assay: Soft agar colony formation assay; type: cell-based, human
Description: Colonies of cancer cells formed in soft agar in the presence and absence of the testing compounds is a standard assay to interpret in-vitro tumorigenic potential in the basal layer. Agar was prepared by mixing 1% DNA grade agar melted and cooled to 40° C. with an equal volume of (2×) Dulbecco's Modified Eagle's Medium (DMEM) to obtain 0.5% agar that was dispersed in a 6-well plate and allowed to solidify. A total of 0.6% agar was prepared in RPMI medium and mixed together with T47D cells (0.5×10^6 cells/mL) and immediately plated on the basal layer in the presence or absence of testing compounds. The cultures were incubated at 37° C. in a CO2 incubator for 2 weeks, and colonies were stained with 0.005% crystal violet and observed under a light microscope.

[6] = tested on: human umbilical vein endothelial cells (HUVEC); assay: Matrigel in vitro HUVECs tube formation assay (angiogenesis); type: cell-based; conditions: 1 μM concentration, all measured time points
Description: Matrigel in vitro HUVECs tube formation assay: The tube formation assay was performed using 12-well plate coated with 100 μL Matrigel basement membrane matrix (BD Bioscience) per well and polymerized at 37° C. for 30 min. Human umbilical vascular endothelial cells (HUVECs) suspended in M199 medium containing 2% FBS were plated on the Matrigel at a density of 2×10^5 cells/well. […] After 8 h, the Matrigel-induced morphological changes were photographed and the extent of capillary tube formation was evaluated by measuring the total tube length per field.

[7] = tested on: human endometrial stromal cells (HESC); assay: Decidualization assay, actin cytoskeleton by phalloidin staining; type: cell-based; conditions: FIG. 3
Description: Decidualization studies: The above compounds were investigated originally for the treatment of endometriosis. The compounds were tested in a decidualization assay using human endometrial stromal fibroblast (HESC) cells. In preparation for the possibility of embryonic attachment, the stromal cells in the endometrium undergo extensive waves of proliferation, remodeling, and terminal differentiation that transforms the endometrium into an endocrine gland, called decidua. This transformation is called decidualization and it is under the control by ovarian hormones.
The level of apoptosis increases from the proliferative phase through menstrual cycle and peaks at menses. […] However if the cells are subjected to conditions that induce decidualization, stromal cells will begin to differentiate instead of undergoing apoptosis.
Briefly, human stromal endometrial cells were plated in the presence and absence of progesterone and allow undergoing decidualization. The cells treated with test compounds of different concentrations and stained for actin cytocketal morphology using phalloidin staining and monitored under fluorescent microscope.

[8] = tested on: MDM2 / P53 in MCF-7 cells; assay: P53 / MDM2 levels in MCF-7 cells (FIG. 5); type: cell-based, human
[9] = tested on: Patient derived tumor (melanoma): p53, LIF, MDM2, pSTAT3, Ki67; assay: Immunohistochemistry analysis of patient derived tumor; type: cell-based, human; conditions: 10 nM and 1 uM for 5 days, FIG. 10
Description: Patient derived tumor (melanoma) was treated with the compounds at 10 nM and 1 uM for 5 days in RPMI medium and harvested on day 6 using established protocol and immunohistochemistry was performed for different antibodies including p53, LIF, MDM2, pSTAT3, Ki67.

[10] = tested on: unmodified MCF-7 human breast cancer cells; assay: LIF specificity assay, unmodified cells; type: cell-based
[11] = tested on: LIF-overexpressing MCF-7 (MCF-7 LIF) human breast cancer cells; assay: LIF specificity assay, LIF-overexpressing cells; type: cell-based
[12] = tested on: IGROV-1 (Ovarian cancer cells); assay: Short term (72 h) cytotoxicity assay; type: cell-based; conditions: Homo sapiens; IGROV-1, 72 h cytotoxicity
[13] = Homo sapiens, MCF7, cytotoxicity
[14] = Homo sapiens, MCF7, cytotoxicity, LIF-overexpressing MCF-7, read-out: MCF-7 LIF IC50

SMILES: C#CC(F)(F)[C@]1(O)CCC2C3CCC4=CC(=O)CCC4=C3C(c3ccc(C(C)=O)cc3)C[C@@]21C (stereo partly drawn) [EC332, 17α-(1,1-difluoro-2-propyn-1-yl)-17β-hydroxy-11β-[4-p-(acetyl)phenyl]estra-4,9-dien-3-one]
IC50 (MDA-MB-231 (TNBC cells)): 110 nM | IC50 (U87-MU (Glioma cells); Glioma cell): 90 nM | IC50 (U251 (Glioma); Homo sapiens, U-251): 40 nM | IC50 (A549 (Lung cancer); Homo sapiens): 75 nM | IC50 [1]: 200 nM | IC50 [2]: 45 nM | IC50 [3]: 300 nM | IC50 (LNCaP (AR+ Prostate)): 96 nM | IC50 [4]: 10 nM | IC50's in cytotoxicity assays [5]: low nanomolar | inhibition in the number of colonies formed (T47D breast cancer cells; 100 nM concentration, in words): complete inhibition | inhibition at 0.005 µM (T47D breast cancer cells; Homo sapiens, T47D, 5 nM concentration, read-out: inhibition in the number of colonies formed): 50% | tube formation [6]: complete abrogation | actin / alpha-smooth muscle mediated cytoskeletal disruption of fibroblast [7]: cytoskeletal disruption | P53 levels / MDM2 [8]: restore P53 levels by inhibiting MDM2 | apoptosis, p53, MDM2, LIF mediated STAT3 phosphorylation (immunohistochemistry) [9]: induce apoptosis and restore p53 by inhibiting MDM2 and LIF mediated STAT3 phosphorylation

melting point: 175 to 178 °C
SMILES: C#CC(F)(F)[C@]1(O)CCC2C3CCC4=CC(=O)CCC4=C3C(c3ccc(-n4ccnc4)cc3)C[C@@]21C (some centres unmarked) [EC351]
IC50 (U251 (Glioma); Homo sapiens, U-251): 500 nM

SMILES: C#CC(F)(F)[C@]1(O)CCC2C3CCC4=CC(=O)CCC4=C3C(c3ccc(N(C)C)cc3)C[C@@]21C (stereo partly drawn) [EC352, 17α-(1,1-difluoro-2-propyn-1-yl)-17β-hydroxy-11β-[4-p-(dimethylamino)phenyl]estra-4,9-dien-3-one]
IC50 (U87-MU (Glioma cells)): 50 nM | IC50 (U251 (Glioma)): 40 nM | IC50 (A549 (Lung cancer)): 45 nM | IC50 ([10]; cytotoxicity): > 10000 nM | Fold Change ([11]; MCF-7 vs. MCF-7 LIF cytotoxicity (specificity towards LIF)): 0 | IC50 ([11]; cytotoxicity, LIF-overexpressing MCF-7, read-out: MCF-7 LIF IC50): > 10000 nM

SMILES: C#CC(F)(F)[C@]1(O)CCC2C3CCC4=CC(=O)CCC4=C3C(c3ccc(OC)cc3)C[C@@]21C (stereo partly drawn) [EC356, 17α-(1,1-difluoro-2-propyn-1-yl)-17β-hydroxy-11β-[4-p-(methoxy)phenyl]estra-4,9-dien-3-one]
IC50 (U87-MU (Glioma cells); Glioma cell): 45 nM | IC50 (U251 (Glioma); Homo sapiens, U-251): 45 nM | IC50 (A549 (Lung cancer); Homo sapiens): 40 nM | IC50 [10, 13]: 500 nM | IC50 [11, 14]: 250 nM

melting point: 127 to 129 °C
SMILES: C#CC(F)(F)[C@]1(O)CCC2C3CCC4=CC(=O)CCC4=C3C(c3ccc(C(C)(C)C)cc3)C[C@@]21C (stereo partly drawn) [EC357, 17α-(1,1-difluoro-2-propyn-1-yl)-17β-hydroxy-11β-[4-p-(t-butyl)phenyl]estra-4,9-dien-3-one]
IC50 (U87-MU (Glioma cells); Glioma cell): 35 nM | IC50 (U251 (Glioma); Homo sapiens, U-251): 30 nM | IC50 (A549 (Lung cancer); Homo sapiens): 35 nM

SMILES: C#CC(F)(F)[C@]1(O)CCC2C3CCC4=CC(=O)CCC4=C3C(c3ccc(C(=C)C)cc3)C[C@@]21C (stereo partly drawn) [EC358, 17α-(1,1-difluoro-2-propyn-1-yl)-17β-hydroxy-11β-[4-p-(1-methylethenyl)phenyl]estra-4,9-dien-3-one]
IC50 [12]: 35 nM | IC50 (MDA-MB-231 (TNBC cells)): 40 nM | IC50 (U87-MU (Glioma cells); Glioma cell): 25 nM | IC50 [10, 13]: 100 nM | IC50 [11, 14]: 50 nM

SMILES: C#CC(F)(F)[C@]1(O)CC[C@H]2[C@@H]3CCC4=CC(=O)CCC4=C3[C@@H](c3ccc(-c4c(C)cc(C)cc4C)cc3)C[C@@]21C [EC359, 17α-(1,1-difluoro-2-propyn-1-yl)-17β-hydroxy-11β-[4-p-(2,4,6-trimethylphenyl)phenyl]estra-4,9-dien-3-one]
IC50 [12]: 25 nM | IC50 (MDA-MB-231 (TNBC cells)): 30 nM | IC50 (U87-MU (Glioma cells); Glioma cell): 10 nM | IC50 [10, 13]: 240 nM | IC50 ([11]; Homo sapiens, MCF7, read-out: MCF-7 LIF IC50): 30 nM

SMILES: C#CC(F)(F)[C@]1(O)CCC2C3CCC4=CC(=O)CCC4=C3C(c3ccc(C4CCCCC4)cc3)C[C@@]21C (stereo partly drawn) [EC360, 17α-(1,1-difluoro-2-propyn-1-yl)-17β-hydroxy-11β-[4-p-(cyclohexyl)phenyl]estra-4,9-dien-3-one]
IC50 [12]: 22 nM | IC50 (MDA-MB-231 (TNBC cells)): 40 nM | IC50 (U87-MU (Glioma cells); Glioma cell): 73 nM | IC50 [10, 13]: 500 nM | IC50 [11, 14]: 250 nM

SMILES: C#CC(F)(F)[C@]1(O)CCC2C3CCC4=CC(=O)CCC4=C3C(c3ccc(S(=O)(=O)C4CC4)cc3)C[C@@]21C (stereo partly drawn) [EC361, 17α-(1,1-difluoro-2-propyn-1-yl)-17β-hydroxy-11β-[4-p-(cyclopropylsulfonyl)phenyl]estra-4,9-dien-3-one]
IC50 [12]: 350 nM | IC50 (MDA-MB-231 (TNBC cells)): 750 nM | IC50 (U87-MU (Glioma cells); Glioma cell): 230 nM | IC50 [10, 13]: > 10000 nM | IC50 [11, 14]: 500 nM

SMILES: C#CC(F)(F)[C@]1(O)CCC2C3CCC4=CC(=O)CCC4=C3C(c3ccc(CCCCCCC)cc3)C[C@@]21C (stereo partly drawn) [EC362, 17α-(1,1-difluoro-2-propyn-1-yl)-17β-hydroxy-11β-[4-p-(n-heptyl)phenyl]estra-4,9-dien-3-one]
IC50 [12]: 7.5 nM | IC50 [1]: 25 nM | IC50 [10, 13]: 50 nM | IC50 [11, 14]: 25 nM

SMILES: C#CC(F)(F)[C@]1(O)CCC2C3CCC4=CC(=O)CCC4=C3C(c3ccc(SC)cc3)C[C@@]21C (stereo partly drawn) [EC363, 17α-(1,1-difluoro-2-propyn-1-yl)-17β-hydroxy-11β-[4-p-(methylthio)phenyl]estra-4,9-dien-3-one]
IC50 [12]: 30 nM | IC50 (U87-MU (Glioma cells); Glioma cell): 30 nM
